# According to patent US10597388B2, “Pyridazinone herbicides” (FMC CORPORATION, priority 2014, dated 2020):
# Assays:
# Type in all cases: in vivo
# [1] = tested on: wheat, spring (spring wheat, Triticum aestivum); assay: Test D controlled growth environment herbicide test, pre- and postemergence
# Summary of the method: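 Species sown in silt loam and sprayed preemergence, or grown in peat-based medium to 2–18 cm (1- to 4-leaf stage) and sprayed postemergence, with compounds in non-phytotoxic solvent plus surfactant. Visual injury scored versus controls after 14–21 d in a controlled environment, 0 (no effect) to 100 (complete control).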
# [2] = tested on: arrowleaf sida (Sida rhombifolia); assay: Test E greenhouse herbicide test, pre- and postemergence
# Description: (§1) Seeds of plant species selected from corn (Zea mays), soybean (Glycine max), velvetleaf (Abutilon theophrasti), lambsquarters (Chenopodium album), wild poinsettia (Euphorbia heterophylla), pigweed, palmer (palmer pigweed, Amaranthus palmeri), waterhemp (common waterhemp, Amaranthus rudis), surinam grass (Brachiaria decumbens), crabgrass, large (large crabgrass, Digitaria sanguinalis), crabgrass, Brazilian (Brazilian crabgrass, Digitaria horizontalis), panicum, fall (fall panicum, Panicum dichotomiflorum), foxtail, giant (giant foxtail, Setaria faberii), foxtail, green (green foxtail, Setaria viridis), goosegrass (Eleusine indica), johnsongrass (Sorghum halepense), ragweed (common ragweed, Ambrosia elatior), barnyardgrass (Echinochloa crus-galli), sandbur (southem sandbur, Cenchrus echinatus), arrowleaf sida (Sida rhombifolia), Italian ryegrass (Lolium multiflorum), dayflower (Virginia (VA) dayflower, Commelina virginica), field bindweed (Convolvulus arvensis), momingglory (Ipomoea coccinea), nightshade (eastern black nightshade, Solanum ptycanthum), kochia (Kochia scoparia), nutsedge, yellow (yellow nutsedge, Cyperus esculentus), horseweed (Conyza canadensis), and beggarticks (hairy beggarticks, Bidens pilosa), were planted into a silt loam soil and treated preemergence with test chemicals formulated in a non-phytotoxic solvent mixture which included a surfactant.
# (§2) At the same time, plants from these crop and weed species and also waterhemp_RES1, (ALS & Triazine resistant common waterhemp, Amaranthus rudis), and waterhemp_RES2, (ALS & HPPD resistant common waterhemp, Amaranthus rudis) were planted in pots containing Redi-Earth® planting medium (Scotts Company, 14111 Scottslawn Road, Marysville, Ohio 43041) comprising spaghnum peat moss, vermiculite, wetting agent and starter nutrients were treated with postemergence applications of test chemicals formulated in the same manner. Plants ranged in height from 2 to 18 cm for postemergence treatments (1- to 4-leaf stage). Treated plants and controls were maintained in a greenhouse for 14 to 21 d, after which time all species were compared to controls and visually evaluated. Plant response ratings, summarized in Table E, are based on a scale of 0 to 100 where 0 is no effect and 100 is complete control. A dash (-) response means no test result.
# [3] = tested on: beggarticks (hairy beggarticks, Bidens pilosa); assay: as above
# Description: as §1, §2
# [4] = tested on: dayflower (Virginia (VA) dayflower, Commelina virginica); assay: as above
# Description: as §1, §2
# [5] = tested on: field bindweed (Convolvulus arvensis); assay: as above
# Description: as §1, §2
# [6] = tested on: horseweed (Conyza canadensis); assay: as above
# Description: as §1, §2
# [7] = tested on: lambsquarters (Chenopodium album); assay: as above; conditions: Preemergence
# Description: as §1, §2
# [8] = tested on: momingglory (Ipomoea coccinea); assay: as above; conditions: Preemergence
# Description: as §1, §2
# [9] = tested on: panicum, fall (fall panicum, Panicum dichotomiflorum); assay: as above
# Description: as §1, §2
# soybean (Glycine max) = assay: as above
# Description: as §1, §2
# [10] = Postemergence, 31 g ai/ha, scale 0 to 100 (0 no effect, 100 complete control)
# [11] = Postemergence, 125 g ai/ha, visual rating on scale 0 (no effect) to 100 (complete control), 14 to 21 d
# [12] = Postemergence, 250 g ai/ha, scale 0 to 100 (0 no effect, 100 complete control)
# [13] = Preemergence, 125 g ai/ha, scale 0 to 100 (0 no effect, 100 complete control)
# [14] = Preemergence, 250 g ai/ha, scale 0 to 100 (0 no effect, 100 complete control)
# [15] = postemergence, 62 g ai/ha, scale 0 to 100, 0 no effect, 100 complete control
# [16] = 62 g ai/ha, Postemergence, scale 0 to 100 (0 no effect, 100 complete control)
# [17] = 62 g ai/ha, Preemergence, scale 0 to 100 (0 no effect, 100 complete control)
# [18] = 125 g ai/ha, Postemergence, scale 0 to 100 (0 no effect, 100 complete control)
# [19] = 125 g ai/ha, Preemergence, scale 0 to 100 (0 no effect, 100 complete control)
# [20] = Postemergence, 16 g ai/ha, visual, scale 0 no effect to 100 complete control
# [21] = Postemergence, 31 g ai/ha, visual, scale 0 no effect to 100 complete control
# [22] = Preemergence, 16 g ai/ha, scale 0 to 100, 0 no effect, 100 complete control
# [23] = Preemergence, 31 g ai/ha, scale 0 to 100, 0 no effect, 100 complete control
# [24] = 125 g ai/ha, scale 0 to 100 (0 no effect, 100 complete control)
# [25] = 16 g ai/ha, scale 0 to 100, 0 no effect, 100 complete control
# [26] = 31 g ai/ha, scale 0 to 100, 0 no effect, 100 complete control
# [27] = 250 g ai/ha, Postemergence, scale 0 to 100 (0 no effect, 100 complete control)
# [28] = Preemergence, 250 g ai/ha, visual, scale 0 no effect to 100 complete control
# [29] = 62 g ai/ha, scale 0 to 100 (0 no effect, 100 complete control)
# [30] = 250 g ai/ha, visual, scale 0 no effect to 100 complete control
smiles,measurement,setting,value
CCC(=O)Oc1c(C)nn(C)c(=O)c1-c1c(C)sc2ccc(Cl)cc12 [Compound 109],"Wheat, Spring plant response rating",[1]; [10],5
same,"Plant response rating, Wheat, Spring",[1]; [11],25
same,"Plant response rating, Wheat, Spring",[1]; [12],30
same,"Plant response rating (scale of 0 to 100), Wheat, Spring","[1]; Preemergence, 31 g ai/ha",0
same,"Plant response rating (scale of 0 to 100), Wheat, Spring","[1]; Preemergence, 62 g ai/ha",5
same,"Plant response rating, Wheat, Spring",[1]; [13],20
same,"Plant response rating, Wheat, Spring",[1]; [14],40
same,"Plant response rating, Wheat, Spring",[1]; [15],15
same,"Plant response rating, Arrowleaf Sida",[2]; [16],60
same,"Plant response rating, Arrowleaf Sida",[2]; [17],30
same,"Plant response rating, Arrowleaf Sida",[2]; [18],80
same,"Plant response rating, Arrowleaf Sida",[2]; [19],35
same,"Plant response rating, Arrowleaf Sida",[2]; [20],50
same,"Plant response rating, Arrowleaf Sida",[2]; [21],65
same,"Plant response rating, Arrowleaf Sida",[2]; [22],40
same,"Plant response rating, Arrowleaf Sida",[2]; [23],35
same,"Plant response rating, Beggarticks",[3]; [16],85
same,"Plant response rating, Beggarticks",[3]; [17],100
same,"Plant response rating, Beggarticks",[3]; [18],100
same,"Plant response rating, Beggarticks",[3]; [19],100
same,"Plant response rating, Beggarticks",[3]; [20],80
same,"Plant response rating, Beggarticks",[3]; [21],90
same,"Plant response rating, Beggarticks",[3]; [22],20
same,"Plant response rating, Beggarticks",[3]; [23],75
same,"Plant response rating, Dayflower, VA",[4]; [16],50
same,"Plant response rating, Dayflower, VA",[4]; [17],25
same,"Plant response rating, Dayflower, VA",[4]; [18],60
same,"Plant response rating, Dayflower, VA",[4]; [19],25
same,"Plant response rating, Dayflower, VA",[4]; [20],30
same,"Plant response rating, Dayflower, VA",[4]; [21],30
same,"Plant response rating, Dayflower, VA",[4]; [22],0
same,"Plant response rating, Dayflower, VA",[4]; [23],25
same,"Plant response rating, Field Bindweed",[5]; [16],95
same,"Plant response rating, Field Bindweed",[5]; [17],40
same,"Plant response rating, Field Bindweed",[5]; [18],90
same,"Plant response rating, Field Bindweed",[5]; [19],80
same,"Plant response rating, Field Bindweed",[5]; [20],75
same,"Plant response rating, Field Bindweed",[5]; [21],80
same,"Plant response rating, Field Bindweed",[5]; [22],0
same,"Plant response rating, Field Bindweed",[5]; [23],0
same,"Plant response rating, Horseweed",[6]; [16],90
same,"Plant response rating, Horseweed",[6]; [17],100
same,"Plant response rating, Horseweed",[6]; [18],85
same,"Plant response rating, Horseweed",[6]; [19],100
same,"Plant response rating, Horseweed",[6]; [20],60
same,"Plant response rating, Horseweed",[6]; [21],80
same,"Plant response rating, Horseweed",[6]; [22],0
same,"Plant response rating, Horseweed",[6]; [23],100
same,"Plant response rating, Lambsquarters",[7]; [24],98
same,"Plant response rating, Lambsquarters",[7]; [25],0
same,"Plant response rating, Lambsquarters",[7]; [26],95
same,"Plant response rating, Morningglory",[8]; [24],65
same,"Plant response rating, Morningglory",[8]; [25],0
same,"Plant response rating, Morningglory",[8]; [26],0
same,"Plant response rating, Panicum, Fall",[9]; [16],65
same,"Plant response rating, Panicum, Fall",[9]; [18],80
same,"Plant response rating, Panicum, Fall",[9]; [19],95
same,"Plant response rating, Panicum, Fall",[9]; [20],50
same,"Plant response rating, Panicum, Fall",[9]; [21],60
same,"Plant response rating, Panicum, Fall",[9]; [22],75
same,"Plant response rating, Panicum, Fall",[9]; [23],80
same,"Plant response rating, Soybean",soybean (Glycine max); [18],20
same,"Plant response rating, Soybean",soybean (Glycine max); [19],0
same,"Plant response rating, Soybean",soybean (Glycine max); [20],0
same,"Plant response rating, Soybean",soybean (Glycine max); [21],0
same,"Plant response rating, Soybean",soybean (Glycine max); [22],0
same,"Plant response rating, Soybean",soybean (Glycine max); [23],0
CCOC(=O)Oc1c(C)nn(C)c(=O)c1-c1c(C)sc2ccc(C)cc12 [Compound 82],"Wheat, Spring plant response rating",[1]; [10],0
same,"Plant response rating, Wheat, Spring",[1]; [11],0
same,"Plant response rating, Wheat, Spring",[1]; [12],5
same,"Plant response rating (scale of 0 to 100), Wheat, Spring","[1]; Preemergence, 31 g ai/ha",0
same,"Plant response rating (scale of 0 to 100), Wheat, Spring","[1]; Preemergence, 62 g ai/ha",0
same,"Plant response rating, Wheat, Spring",[1]; [13],15
same,"Plant response rating, Wheat, Spring",[1]; [14],40
same,"Plant response rating, Wheat, Spring",[1]; [15],0
same,"Plant response rating, Arrowleaf Sida",[2]; [16],70
same,"Plant response rating, Arrowleaf Sida",[2]; [17],70
same,"Plant response rating, Arrowleaf Sida",[2]; [18],80
same,"Plant response rating, Arrowleaf Sida",[2]; [19],85
same,"Plant response rating, Arrowleaf Sida",[2]; [27],90
same,"Plant response rating, Arrowleaf Sida",[2]; [21],65
same,"Plant response rating, Arrowleaf Sida",[2]; [23],20
same,"Plant response rating, Arrowleaf Sida",[2]; [28],95
same,"Plant response rating, Beggarticks",[3]; [16],90
same,"Plant response rating, Beggarticks",[3]; [17],100
same,"Plant response rating, Beggarticks",[3]; [18],98
same,"Plant response rating, Beggarticks",[3]; [19],100
same,"Plant response rating, Beggarticks",[3]; [27],98
same,"Plant response rating, Beggarticks",[3]; [21],90
same,"Plant response rating, Beggarticks",[3]; [23],100
same,"Plant response rating, Beggarticks",[3]; [28],100
same,"Plant response rating, Dayflower, VA",[4]; [16],50
same,"Plant response rating, Dayflower, VA",[4]; [17],5
same,"Plant response rating, Dayflower, VA",[4]; [18],60
same,"Plant response rating, Dayflower, VA",[4]; [19],5
same,"Plant response rating, Dayflower, VA",[4]; [27],65
same,"Plant response rating, Dayflower, VA",[4]; [21],40
same,"Plant response rating, Dayflower, VA",[4]; [23],0
same,"Plant response rating, Dayflower, VA",[4]; [28],35
same,"Plant response rating, Field Bindweed",[5]; [16],80
same,"Plant response rating, Field Bindweed",[5]; [17],50
same,"Plant response rating, Field Bindweed",[5]; [18],95
same,"Plant response rating, Field Bindweed",[5]; [19],100
same,"Plant response rating, Field Bindweed",[5]; [27],85
same,"Plant response rating, Field Bindweed",[5]; [21],85
same,"Plant response rating, Field Bindweed",[5]; [23],65
same,"Plant response rating, Field Bindweed",[5]; [28],95
same,"Plant response rating, Horseweed",[6]; [16],70
same,"Plant response rating, Horseweed",[6]; [17],100
same,"Plant response rating, Horseweed",[6]; [18],75
same,"Plant response rating, Horseweed",[6]; [19],100
same,"Plant response rating, Horseweed",[6]; [27],80
same,"Plant response rating, Horseweed",[6]; [21],60
same,"Plant response rating, Horseweed",[6]; [23],90
same,"Plant response rating, Horseweed",[6]; [28],100
same,"Plant response rating, Lambsquarters",[7]; [29],75
same,"Plant response rating, Lambsquarters",[7]; [24],100
same,"Plant response rating, Lambsquarters",[7]; [26],98
same,"Plant response rating, Lambsquarters",[7]; [30],100
same,"Plant response rating, Morningglory",[8]; [29],80
same,"Plant response rating, Morningglory",[8]; [24],90
same,"Plant response rating, Morningglory",[8]; [26],70
same,"Plant response rating, Morningglory",[8]; [30],100
same,"Plant response rating, Panicum, Fall",[9]; [16],65
same,"Plant response rating, Panicum, Fall",[9]; [17],95
same,"Plant response rating, Panicum, Fall",[9]; [18],75
same,"Plant response rating, Panicum, Fall",[9]; [19],98
same,"Plant response rating, Panicum, Fall",[9]; [27],75
same,"Plant response rating, Panicum, Fall",[9]; [21],70
same,"Plant response rating, Panicum, Fall",[9]; [23],90
same,"Plant response rating, Panicum, Fall",[9]; [28],100
same,"Plant response rating, Soybean",soybean (Glycine max); [17],0
same,"Plant response rating, Soybean",soybean (Glycine max); [18],40
same,"Plant response rating, Soybean",soybean (Glycine max); [19],0
same,"Plant response rating, Soybean",soybean (Glycine max); [27],35
same,"Plant response rating, Soybean",soybean (Glycine max); [21],10
same,"Plant response rating, Soybean",soybean (Glycine max); [23],0
